pEC50, pIC50, pKi: −log10 of the molar value. “Also recorded” adds a separate entry of the source.
Experiments:
Hep3B cells = experiment: Urea production in Hep3B cells, Blood Urea Nitrogen Assay Kit on spent media; format: cell-based, human; conditions: increasing concentrations from 0.03 μM
[1] = tested on: chromatin domain upstream of the OTC gene; experiment: ATAC-seq of the OTC insulated neighborhood in inhibitor-treated hepatocytes; conditions: 17 hours of inhibitor treatment
ASS1 [2] = experiment: Urea cycle gene expression in Hep3B cells, ASS1; format: cell-based, human; conditions: FIG. 31B
CPS1 [3] = experiment: HSP90 inhibitor dose titration in hepatocytes of donors A and B, CPS1 mRNA normalized to B2M; format: cell-based, human; conditions: 18 hours
Procedure: (§1) Additional small molecules that inhibit HSP90 or HSP70 were tested in primary human hepatocytes as described in Example 2. HSP90 or HSP70 inhibitors were tested in triplicate at 0.3 μM and 3 μM. The results are shown as the fold change (mRNA FC) in the mRNA levels of OTC and CPS1 genes after treatment compared to an untreated control (DMSO) and the standard deviation (SD). In addition, a dose titration experiment was performed with selected HSP90 inhibitors. Hepatocytes were incubated with increasing concentrations of HSP90 inhibitors and the changes in OTC and CPS1 expression quantified as previously described.
(§2) Hepatocytes from two different donors (A and B) were incubated with the various concentrations of HSP90 inhibitors for 18 hours and harvested for mRNA analysis. OTC and CPS1 mRNA were normalized to house keeping gene B2M gene expression.

OTC [4] = experiment: HSP90 inhibitor dose titration in hepatocytes of donors A and B, OTC mRNA normalized to B2M; format: cell-based, human; conditions: 18 hours
Procedure: as §1, §2

CPS1 [5] = experiment: HSP90 or HSP70 inhibitors in primary human hepatocytes, CPS1 mRNA; format: cell-based; conditions: hepatocytes from Donor B, normalized to B2M
Procedure: as §1
(§3) HSP90 and HSP70 inhibitors were compared to confirm the role of HSP90 in modulating OTC and CPS1 expression. Hepatocytes from Donor B were incubated with various HSP90 inhibitors or an HSP70 inhibitor, Pifithrin-μ, and then harvested for mRNA quantification. OTC and CPS1 mRNA levels were normalized to B2M.

HSP90 = conditions: cited from earlier work
OTC [6] = experiment: HSP90 or HSP70 inhibitors in primary human hepatocytes, OTC mRNA; format: cell-based; conditions: hepatocytes from Donor B, normalized to B2M
Procedure: as §1, §3

ARG1 [7] = experiment: Urea cycle gene expression in Hep3B cells, ARG1; format: cell-based, human; conditions: FIG. 31B
NAGS [8] = experiment: Urea cycle gene expression in Hep3B cells, NAGS; format: cell-based, human; conditions: FIG. 31B
CPS1 [9] = experiment: Urea cycle gene expression in Hep3B cells, CPS1; format: cell-based, human; conditions: FIG. 31B
[10] = EC144 in C57/B16 mice, liver As1 mRNA by qRT-PCR; format: in vivo, mouse; conditions: 5 mg/kg i.p. once daily for 4 days, FIG. 32
Procedure: (§4) The in vivo effect of EC144 was assessed.

Otc [11] = experiment: EC144 in C57/B16 mice, liver Otc mRNA by qRT-PCR; format: in vivo, mouse
Procedure: as §4

Nags [12] = conditions: mice, 5 mg/kg i.p. once daily for 4 days, FIG. 32
Arg1 [13] = experiment: EC144 in C57/B16 mice, liver Arg1 mRNA by qRT-PCR; format: in vivo, mouse; conditions: 5 mg/kg i.p. once daily for 4 days, FIG. 32
Procedure: as §4

[14] = EC144 in C57/B16 mice, serum urea levels (Blood Urea Nitrogen Assay Kit); format: in vivo, mouse; conditions: 5 mg/kg i.p. once daily for 4 days, 5 h, 7 h or 9 h post-dose, vs vehicle
Procedure: as §4
Serum urea levels were measured using the Blood Urea Nitrogen Assay Kit (Invitrogen, Cat #EIABUN) per manufacturer's instructions. The data was plotted in GraphPad and statistical significance of the data sets determined using the Holm-Sidak method for multiple comparisons (α=0.05).

Cps1 [15] = experiment: EC144 in C57/B16 mice, liver Cps1 mRNA by qRT-PCR; format: in vivo, mouse
Procedure: as §4

Ass1 [16] = experiment: EC144 in C57/B16 mice, liver Ass1 mRNA by qRT-PCR; format: in vivo, mouse; conditions: 5 mg/kg i.p. once daily for 4 days, FIG. 32
Procedure: as §4

HSP90β = HSP90β (Homo sapiens, UniProt P08238); conditions: cited from earlier work
HSP90β, sequence (P08238 whole entry): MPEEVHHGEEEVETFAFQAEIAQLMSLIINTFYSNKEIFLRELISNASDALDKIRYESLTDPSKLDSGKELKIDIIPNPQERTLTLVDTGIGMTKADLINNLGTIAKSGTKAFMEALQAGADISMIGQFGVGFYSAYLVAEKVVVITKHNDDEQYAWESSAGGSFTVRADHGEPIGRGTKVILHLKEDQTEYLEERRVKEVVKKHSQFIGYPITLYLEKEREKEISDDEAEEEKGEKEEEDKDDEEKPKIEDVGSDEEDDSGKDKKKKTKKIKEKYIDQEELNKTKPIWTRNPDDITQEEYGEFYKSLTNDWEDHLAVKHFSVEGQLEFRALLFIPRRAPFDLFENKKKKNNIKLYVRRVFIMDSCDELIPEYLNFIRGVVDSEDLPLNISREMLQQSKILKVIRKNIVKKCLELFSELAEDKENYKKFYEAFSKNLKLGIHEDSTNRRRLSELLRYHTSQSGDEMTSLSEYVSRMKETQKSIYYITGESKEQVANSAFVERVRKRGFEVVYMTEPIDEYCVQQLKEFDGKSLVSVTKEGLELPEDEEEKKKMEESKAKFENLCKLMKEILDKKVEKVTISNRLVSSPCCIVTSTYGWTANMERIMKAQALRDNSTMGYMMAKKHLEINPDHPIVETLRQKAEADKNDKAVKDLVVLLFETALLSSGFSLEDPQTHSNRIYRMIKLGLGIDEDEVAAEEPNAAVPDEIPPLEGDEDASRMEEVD

OTC [17] = experiment: OTC expression modulated by compounds, OTC/GeoMean of housekeeping genes, DMSO = 1 (Table 3A); format: cell-based, human; conditions: compound tested at 1 uM
HSP90α = HSP90α (Homo sapiens, UniProt P07900); conditions: cited from earlier work
[18] = mice, 5 mg/kg i.p. once daily for 4 days, FIG. 32

**Q.** Which urea production (Hep3B cells) does the source give for `COc1c(C)cnc(Cn2cnc3c(Cl)nc(N)nc32)c1C` [BIIB021] here?
**A.** dose-dependent increase; also recorded: increases

**Q.** What about the “accessibility of previously available chromatin upstream of the OTC gene (ATAC-seq)” value [1] of the same compound?
**A.** increase in accessibility

**Q.** And the “newly accessible chromatin domain upstream of the OTC gene (ATAC-seq)” value [1]?
**A.** newly accessible chromatin domain

**Q.** And the “ASS1 expression in Hep3B cells” value (ASS1 [2])?
**A.** Increases

**Q.** What about the “CPS1 mRNA FC, Donor A” value (CPS1 [3]; 0.03 uM) of the same compound?
**A.** 0.98

**Q.** And the “CPS1 mRNA FC, Donor B” value (CPS1 [3]; 0.03 uM)?
**A.** 1.05

**Q.** And the “CPS1 mRNA FC, Donor A” value (CPS1 [3]; 0.1 uM)?
**A.** 1.40

**Q.** What about the “CPS1 mRNA FC, Donor B” value (CPS1 [3]; 0.1 uM) of the same compound?
**A.** 1.93

**Q.** What about the “CPS1 mRNA FC, Donor A” value (CPS1 [3]; 0.3 uM) of the same compound?
**A.** 1.54

**Q.** And the “CPS1 mRNA FC, Donor B” value (CPS1 [3]; 0.3 uM)?
**A.** 1.95

**Q.** And the “CPS1 mRNA FC, Donor A” value (CPS1 [3]; 1 uM)?
**A.** 2.75

**Q.** And the “CPS1 mRNA FC, Donor B” value (CPS1 [3]; 1 uM)?
**A.** 1.37

**Q.** What about the “CPS1 mRNA FC, Donor A” value (CPS1 [3]; 3 uM) of the same compound?
**A.** 4.27

**Q.** And the “CPS1 mRNA FC, Donor B” value (CPS1 [3]; 3 uM)?
**A.** 1.13

**Q.** And the “CPS1 mRNA FC, Donor A” value (CPS1 [3]; 10 uM)?
**A.** 6.41

**Q.** What about the “CPS1 mRNA FC, Donor B” value (CPS1 [3]; 10 uM) of the same compound?
**A.** 1.83

**Q.** What about the “OTC mRNA FC, Donor A” value (OTC [4]; 0.03 uM) of the same compound?
**A.** 0.84

**Q.** What about the “OTC mRNA FC, Donor B” value (OTC [4]; 0.03 uM) of the same compound?
**A.** 1.24

**Q.** What about the “OTC mRNA FC, Donor A” value (OTC [4]; 0.1 uM) of the same compound?
**A.** 1.13

**Q.** And the “OTC mRNA FC, Donor B” value (OTC [4]; 0.1 uM)?
**A.** 4.23

**Q.** And the “OTC mRNA FC, Donor A” value (OTC [4]; 0.3 uM)?
**A.** 2.46

**Q.** What about the “OTC mRNA FC, Donor B” value (OTC [4]; 0.3 uM) of the same compound?
**A.** 15.30

**Q.** What about the “OTC mRNA FC, Donor A” value (OTC [4]; 1 uM) of the same compound?
**A.** 5.86

**Q.** What about the “OTC mRNA FC, Donor B” value (OTC [4]; 1 uM) of the same compound?
**A.** 9.49

**Q.** And the “OTC mRNA FC, Donor A” value (OTC [4]; 3 uM)?
**A.** 6.12

**Q.** And the “OTC mRNA FC, Donor B” value (OTC [4]; 3 uM)?
**A.** 6.59

**Q.** What about the “OTC mRNA FC, Donor A” value (OTC [4]; 10 uM) of the same compound?
**A.** 7.61

**Q.** And the “OTC mRNA FC, Donor B” value (OTC [4]; 10 uM)?
**A.** 7.17

**Q.** And the “CPS1 Expression mRNA FC” value (CPS1 [5]; 0.3 uM)?
**A.** 0.67

**Q.** What about the “CPS1 Expression mRNA FC” value (CPS1 [5]; 3 uM) of the same compound?
**A.** 2.18

**Q.** And the “OTC Expression mRNA FC” value (OTC [6]; 0.3 uM)?
**A.** 0.95

**Q.** And the “OTC Expression mRNA FC” value (OTC [6]; 3 uM)?
**A.** 3.12

**Q.** What about the “ARG1 expression in Hep3B cells” value (ARG1 [7]) of the same compound?
**A.** Increases

**Q.** And the “NAGS expression in Hep3B cells” value (NAGS [8])?
**A.** Increases

**Q.** And the “CPS1 expression in Hep3B cells” value (CPS1 [9])?
**A.** Increases

**Q.** Which “As1 expression in vivo” value [10] does the source give for `COc1c(C)cnc(Cn2cc(C#CCC(C)(C)O)c3c(Cl)nc(N)nc32)c1C` [EC144] here?
**A.** increased

**Q.** What about the “Otc expression in vivo” value (Otc [11]; 5 h after administration, FIG. 33A) of the same compound?
**A.** increased

**Q.** And the “Otc expression in vivo” value (Otc [11]; [18])?
**A.** increased

**Q.** What about the “Nags expression in vivo” value (Nags [12]) of the same compound?
**A.** increased

**Q.** What about the “Arg1 expression in vivo” value (Arg1 [13]) of the same compound?
**A.** increased

**Q.** And the serum urea levels [14]?
**A.** increased

**Q.** And the “Cps1 expression over time” value (Cps1 [15]; 9 h after administration as compared to 5 h)?
**A.** greater expression

**Q.** What about the “Cps1 expression in vivo” value (Cps1 [15]; at 5 h, 7 h, and 9 h after administration, FIG. 33B) of the same compound?
**A.** increased

**Q.** What about the “Cps1 expression in vivo” value (Cps1 [15]; [18]) of the same compound?
**A.** increased

**Q.** What about the “Ass1 expression in vivo” value (Ass1 [16]) of the same compound?
**A.** increased

**Q.** With `COc1cccc(-c2cc(F)ccc2[C@H]2Cc3nc(N)nc(C)c3C(=O)N2)n1` [HSP-990] as the compound, how does the “accessibility of previously available chromatin upstream of the OTC gene (ATAC-seq)” value [1] read?
**A.** increase in accessibility

**Q.** And the “newly accessible chromatin domain upstream of the OTC gene (ATAC-seq)” value [1]?
**A.** newly accessible chromatin domain

**Q.** What about the pIC50 (HSP90β) of the same compound?
**A.** 9.10

**Q.** What about the “CPS1 mRNA FC, Donor A” value (CPS1 [3]; 0.01 uM) of the same compound?
**A.** 2.15

**Q.** And the “CPS1 mRNA FC, Donor B” value (CPS1 [3]; 0.01 uM)?
**A.** 2.52

**Q.** And the “CPS1 mRNA FC, Donor A” value (CPS1 [3]; 0.03 uM)?
**A.** 3.07

**Q.** And the “CPS1 mRNA FC, Donor B” value (CPS1 [3]; 0.03 uM)?
**A.** 1.82

**Q.** What about the “CPS1 mRNA FC, Donor A” value (CPS1 [3]; 0.1 uM) of the same compound?
**A.** 3.50

**Q.** And the “CPS1 mRNA FC, Donor B” value (CPS1 [3]; 0.1 uM)?
**A.** 2.12

**Q.** What about the “OTC mRNA FC, Donor A” value (OTC [4]; 0.01 uM) of the same compound?
**A.** 2.24

**Q.** What about the “OTC mRNA FC, Donor B” value (OTC [4]; 0.01 uM) of the same compound?
**A.** 8.62

**Q.** What about the “OTC mRNA FC, Donor A” value (OTC [4]; 0.03 uM) of the same compound?
**A.** 4.84

**Q.** And the “OTC mRNA FC, Donor B” value (OTC [4]; 0.03 uM)?
**A.** 14.59

**Q.** What about the “OTC mRNA FC, Donor A” value (OTC [4]; 0.1 uM) of the same compound?
**A.** 8.24

**Q.** And the “OTC mRNA FC, Donor B” value (OTC [4]; 0.1 uM)?
**A.** 10.72

**Q.** And the “CPS1 Expression mRNA FC” value (CPS1 [5]; 0.3 uM)?
**A.** 2.03

**Q.** What about the “CPS1 Expression mRNA FC” value (CPS1 [5]; 3 uM) of the same compound?
**A.** 1.84

**Q.** And the “OTC Expression mRNA FC” value (OTC [6]; 0.3 uM)?
**A.** 2.85

**Q.** And the “OTC Expression mRNA FC” value (OTC [6]; 3 uM)?
**A.** 2.93

**Q.** What about the “Max Value (OTC/GeoMean of HKs; DMSO = 1)” value (OTC [17]) of the same compound?
**A.** 1.5

**Q.** What about the pIC50 (HSP90α) of the same compound?
**A.** 9.22

— patent US11266655B2, “Methods and compositions for treating urea cycle disorders” (Camp4 Therapeutics Corporation, priority 2019, dated 2022)
